Reference: BindingDB's records for doi:10.1016/j.bmc.2020.115681 (Takeda Pharmaceuticals International, 2020)
pIC50: −log10 of the molar value.

Tests used:
[1] = biological target: T1, Ubiquitin-like modifier-activating enzyme ATG7 (Homo sapiens, UniProt O95352); assay: Inhibition of ATG7 in human 293HEK cells assessed as inhibition of ATG7:ATG8 thioester formation after 4 hrs by Western blot analysis
T1 sequence (O95352 whole entry): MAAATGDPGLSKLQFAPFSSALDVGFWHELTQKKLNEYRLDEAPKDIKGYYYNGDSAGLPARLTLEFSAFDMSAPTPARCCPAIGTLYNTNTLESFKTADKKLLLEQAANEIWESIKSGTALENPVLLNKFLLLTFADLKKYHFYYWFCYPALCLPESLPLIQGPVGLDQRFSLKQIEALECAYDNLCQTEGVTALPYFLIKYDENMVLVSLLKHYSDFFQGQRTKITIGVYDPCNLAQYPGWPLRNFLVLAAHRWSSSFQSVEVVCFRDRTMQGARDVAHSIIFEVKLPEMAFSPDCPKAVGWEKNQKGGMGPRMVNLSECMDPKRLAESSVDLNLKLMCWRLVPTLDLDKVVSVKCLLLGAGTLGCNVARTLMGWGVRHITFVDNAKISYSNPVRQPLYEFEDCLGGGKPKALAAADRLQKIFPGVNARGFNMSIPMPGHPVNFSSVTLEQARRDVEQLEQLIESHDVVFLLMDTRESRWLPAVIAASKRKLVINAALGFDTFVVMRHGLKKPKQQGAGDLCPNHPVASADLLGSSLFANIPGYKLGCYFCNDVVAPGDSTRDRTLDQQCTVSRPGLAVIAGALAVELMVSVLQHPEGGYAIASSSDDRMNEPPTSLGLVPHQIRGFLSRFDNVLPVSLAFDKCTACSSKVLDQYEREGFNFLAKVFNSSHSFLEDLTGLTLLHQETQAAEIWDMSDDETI

[2] = biological target: T1, Ubiquitin-like modifier-activating enzyme ATG7; assay: Inhibition of recombinant His-tagged human ATG7 incubated for 105 mins in presence of GST-tagged ATG3 and Flag-tagged Gabarap and measured after 2 hrs by FRET assay relative to control

Row | pIC50 [1] | pIC50 [2] | Compound
1 | 6.53 |  | CSc1nn([C@H]2C[C@H](O)[C@H](COS(N)(=O)=O)O2)c2ncnc(N)c12 [{(2S,3S,5R)-5-[4-amino-3-(methylsulfanyl)-1H-pyrazolo[3,4-d]pyrimidin-1-yl]-3-hydroxytetrahydrofuran-2-yl}methyl sulfamate]
2 |  | 7.46 | Cc1cccc(Sc2nn([C@@H]3O[C@H](COS(N)(=O)=O)[C@@H](O)[C@@H]3F)c3ncnc(N)c23)c1 [[(2R,3R,4S,5R)-5-{4-amino-3-[(3-methylphenyl)sulfanyl]-1H-pyrazolo[3,4-d]pyrimidin-1-yl}-4-fluoro-3-hydroxytetrahydrofuran-2-yl]methyl sulfamate]
